Values quoted from earlier work in patent publication US6428772B1, “Acne treatment composition with cooling effect” (Blistex Inc., priority 2001, dated 2002).
Where two headings read alike, the source gives them in different places.

Key:
[1] = not given; remark: listed apart in the source
[2] = tested on: histamine induced itching; conditions: Neuroscience Letters 1995, 187:3, pp. 157-160

Compound	solubility in water (water)	solubility in alcohol [1]	pH of the solution produced (1 gram in about 460 ml of water)	volume of water dissolving 1 gram (1 gram, water, room temperature)	solubility in water (water, room temperature)	volume of alcohol dissolving 1 gram ([1]; 1 gram)	effect on histamine induced itching [2]
O=C(OOC(=O)c1ccccc1)c1ccccc1 [Benzoyl peroxide, benzoyl peroxide]	sparingly soluble	sparingly soluble					
O=C(O)c1ccccc1O [Salicylic acid, salicylic acid]	sparingly soluble		2.4	about 460 ml	about 0.2 % by weight	about 2.7 ml	
CC1CCC(C(C)C)C(O)C1 (centres unmarked) [menthol]							effective
